Earlier results on 1 compound are cited in patent publication US20220296715A1, “METHOD FOR PREVENTING PRECIPITATION OF INJECTABLE SOLUTION CONTAINING p-BORONOPHENYLALANINE” (Stella Pharma Corporation, priority 2019, published 2022).

The conditions of the data set: physiological pH.

The structures appear in SMILES notation.

As for `N[C@@H](Cc1ccc(B(O)O)cc1)C(=O)O` [p-Boronophenylalanine, p-boronophenylalanine], the solubility result is recorded as “very poor solubility”.
